Measurements reported in paper PMC8910004, “Hexokinase 2 Inhibition and Biological Effects of BNBZ and Its Derivatives: The Influence of the Number and Arrangement of Hydroxyl Groups” (International Journal of Molecular Sciences, 2022).

Assays:
[1] = biological target: T1, Hexokinase 2 (Homo sapiens, UniProt P52789); test: in vitro HK2 Inhibitor Screening Kit (G6PDH-coupled colorimetric), […], positive control; assay type: biochemical
T1 construct: gene HK2
T1 sequence (P52789 1-917): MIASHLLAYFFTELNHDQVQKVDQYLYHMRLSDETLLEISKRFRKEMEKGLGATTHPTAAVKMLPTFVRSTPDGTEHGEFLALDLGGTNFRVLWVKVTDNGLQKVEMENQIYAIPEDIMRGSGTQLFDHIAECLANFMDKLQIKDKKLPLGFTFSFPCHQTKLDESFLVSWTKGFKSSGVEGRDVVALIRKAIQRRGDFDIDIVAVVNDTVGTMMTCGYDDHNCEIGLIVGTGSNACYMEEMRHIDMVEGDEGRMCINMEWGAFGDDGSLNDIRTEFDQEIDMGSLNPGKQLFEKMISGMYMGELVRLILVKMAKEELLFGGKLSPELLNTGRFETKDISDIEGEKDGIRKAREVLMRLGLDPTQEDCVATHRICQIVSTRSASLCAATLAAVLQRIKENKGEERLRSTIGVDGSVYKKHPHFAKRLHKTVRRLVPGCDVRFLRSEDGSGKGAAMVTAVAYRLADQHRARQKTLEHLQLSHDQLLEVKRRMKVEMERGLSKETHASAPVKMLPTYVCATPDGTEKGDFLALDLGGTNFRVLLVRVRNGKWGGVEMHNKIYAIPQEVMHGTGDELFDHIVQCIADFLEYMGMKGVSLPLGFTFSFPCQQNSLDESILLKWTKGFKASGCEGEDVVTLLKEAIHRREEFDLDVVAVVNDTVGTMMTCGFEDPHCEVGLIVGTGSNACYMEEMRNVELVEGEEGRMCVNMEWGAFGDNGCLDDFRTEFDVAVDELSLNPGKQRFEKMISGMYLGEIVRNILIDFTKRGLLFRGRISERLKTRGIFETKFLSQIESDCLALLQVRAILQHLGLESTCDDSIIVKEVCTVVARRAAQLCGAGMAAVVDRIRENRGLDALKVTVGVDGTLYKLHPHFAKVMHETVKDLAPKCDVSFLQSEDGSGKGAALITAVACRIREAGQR

[2] = biological target: T2, Hexokinase 2 (H6-hHK2) (Homo sapiens, UniProt P52789); test: microscale thermophoresis (RED-Tris-NTA labelled His6-HK2); assay type: binding
T2 construct: gene HK2; N-terminal His6-tagged human HK2, aa 17-917
T2 sequence (P52789 17-917): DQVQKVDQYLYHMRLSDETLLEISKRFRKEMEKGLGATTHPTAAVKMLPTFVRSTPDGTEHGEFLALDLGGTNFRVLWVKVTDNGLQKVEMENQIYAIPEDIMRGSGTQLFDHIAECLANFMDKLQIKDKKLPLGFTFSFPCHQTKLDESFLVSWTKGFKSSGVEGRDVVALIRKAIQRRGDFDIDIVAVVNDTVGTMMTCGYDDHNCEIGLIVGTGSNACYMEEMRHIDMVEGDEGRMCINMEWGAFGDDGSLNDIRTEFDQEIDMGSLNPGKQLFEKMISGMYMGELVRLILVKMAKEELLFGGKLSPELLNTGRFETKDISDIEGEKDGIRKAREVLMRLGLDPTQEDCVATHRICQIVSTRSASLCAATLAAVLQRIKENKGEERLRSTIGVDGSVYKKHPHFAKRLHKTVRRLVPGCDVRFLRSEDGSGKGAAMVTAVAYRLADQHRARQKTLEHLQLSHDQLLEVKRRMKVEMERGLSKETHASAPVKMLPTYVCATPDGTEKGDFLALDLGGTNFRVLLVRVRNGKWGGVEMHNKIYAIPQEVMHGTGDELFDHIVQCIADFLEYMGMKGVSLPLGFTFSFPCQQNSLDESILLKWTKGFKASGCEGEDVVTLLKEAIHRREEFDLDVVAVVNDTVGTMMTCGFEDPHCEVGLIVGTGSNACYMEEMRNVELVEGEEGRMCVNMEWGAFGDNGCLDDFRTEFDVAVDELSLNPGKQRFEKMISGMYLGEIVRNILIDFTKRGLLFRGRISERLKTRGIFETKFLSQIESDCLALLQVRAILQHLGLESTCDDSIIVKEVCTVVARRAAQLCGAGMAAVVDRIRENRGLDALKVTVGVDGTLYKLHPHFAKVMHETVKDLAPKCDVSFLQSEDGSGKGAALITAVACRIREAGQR

[3] = biological target: T2, Hexokinase 2 (H6-hHK2); test: microscale thermophoresis (RED-Tris-NTA labelled His6-HK2); also inhibits isolated HK2 in kit assay; assay type: binding

OC[C@H]1OC(O)C[C@@H](O)[C@@H]1O (stereo partly shown) [2DG, 2-deoxyglucose]
activity at 5 µM [1]: 9.9 ± 0.5%

O=C(O)C(=O)CBr [3BP, 3-bromopyruvate]
activity at 5 µM [1]: 2.5 ± 0.4%

O=C(N/N=C/c1ccc(O)cc1O)c1ccc([N+](=O)[O-])cc1 [2b, (E)-N′-(2,4-dihydroxybenzylidene)-4-nitrobenzohydrazide]
Kd [2]: 58.9 µM

O=C(N/N=C/c1ccc(O)c(O)c1O)c1ccc([N+](=O)[O-])cc1 [2a, (E)-N′-(2,3,4-trihydroxybenzylidene)-4-nitrobenzohydrazide]
Kd [3]: 8.83 to 11 µM
